Laboratory results reported in patent publication US5885834A, “Antisense oligodeoxynucleotide against phosphodiesterase” (priority 1997, dated 1999).

Test system: RPMI 8392 cells
Experiment: Apoptosis by endonuclease-digested DNA (DNA laddering) on agarose gels
Format: cell-based, human
Conditions: RPMI 8392 cells
Procedure: The preferred method for testing the ability of AS ODN to induce apoptosis as determined by detection of endonuclease digested DNA on agarose gels employs the following sequence:
(2) Cells are grown to ≈10^6 /ml, collected by centrifugation for 5 min. at 300×g (1000 rpm in an IEC Model K centrifuge), resuspended in growth medium to 10^6 cells/ml, and placed in a 24 well tissue culture plate at 1 ml/well. The cell volumes are kept to a minimum (i.e., -1 ml), in order to reduce the amount of ODN needed. The fetal bovine serum used in the growth medium for this step is heat-inactivated at 65° C. for 1 hr. to minimize serum nuclease activity.
(4) Cells are then incubated for varying times, usually 1-3 days, following which the DNA is isolated.
The supernatant is aspirated down to ≈50 μl of volume and the cell pellet is resuspended in this remaining small volume.
(6) About 400 μl of cold cell lysis buffer (50 mM Tris-HCl, pH 7.5, 10 mM EDTA, 1% Triton X-100) is then added.
(9) The upper, aqueous phase is transferred to a fresh microfuge tube and 250 μl of phenol and 250 μl of chloroform are added, the mixture gently vortexed for 5 sec., and centrifuged at 16,650×g for 5 min.
(10) The upper, aqueous phase is again transferred to a fresh microfuge tube and 500 μl of chloroform is added, followed by gentle vortexing and centrifugation at 16,650×g for 3 min.
(11) The upper, aqueous phase is again transferred to a fresh microfuge tube, 3M sodium acetate (pH 5.2) is added to a final concentration of 0.3M, and 2.5 volumes of ice cold 100% ethanol is added. The solution is left overnight at -20° C. to precipitate the DNA.
(12) The DNA is collected by centrifugation at 16,650×g for 15 min., the supernatant decanted, and the pellet air dried for ≈30-60 min. at room temperature. The DNA pellet is then dissolved in 50 μl of pH 8.0 TE buffer at room temperature overnight.
(13) One μl of a 4 mg/ml solution of DNase-free RNase A is then added to the DNA and incubation is carried out at 37° C. for 30 min. This step is necessary to prevent contaminating RNA from obscuring the gel.
(14) Thirty μl of DNA solution is then mixed with 6 μl of 6× loading buffer and run on a 2% agarose gel, containing 0.5 μg/ml ethidium bromide, in 0.5× TBE buffer (45 mM Tris-borate, 1 mM EDTA, pH 8.0) at ≈50 V for ≈1.5 hr. The 6× loading buffer used is 0.25% xylene cyanol and 30% glycerol. The use of bromophenol blue is omitted for this analysis because it tends to obscure the visualization of the DNA ladder pattern.
(15) The gel is then visualized and photographed under UV light.
The effect of pharmacological inhibition of each of these PDE activities on induction of apoptosis in RPMI 8392 cells was tested, using the appearance of oligonucleosome length fragments of endonuclease digested DNA as a measure of apoptosis.
Markers (lane 1 in both gels) are 1 kb DNA ladder size markers from GIBCO/BRL.
Cells (10^6) were collected by centrifugation at 670×g for 5 min. The cell pellets were rinsed once with 0.2M dibasic sodium phosphate and lysed in 300 μl of lysis buffer (50 mM Tris/HCl pH 7.5, 10 mM EDTA, 1% V/V Triton X-100) for 20 min on ice. Proteinase K was added to 0.5 mg/ml and DNase-free RNase was added to 50 μg/ml and the extract incubated at 37° C. for 1 hr. DNA was then extracted in phenol/chloroform (1:1) and chloroform (1:1) and precipitated in 2.5 volumes of ethanol. The extracted DNA was electrophoresed on 2% agarose gels, the gels stained with 0.5 μg/ml ethidium bromide and photographed under UV light.
Experiments were conducted to determine if inhibition of the expression of the gene for PDE1B1 could induce apoptosis.

Row | Substance | Induction of apoptosis (DNA fragmentation) (10 μM ODN, 3 days) | Induction of apoptosis (DNA fragmentation) (30 μM ODN, 2 days (48 hr)) | Induction of apoptosis (DNA fragmentation) (30 μM ODN, 3 days) | Induction of apoptosis (DNA fragmentation) (any concentration tested (0.3-30 μM), 1, 2 and 3 days)
1 | 5'-GGACAGCTCCATGCTCAG-3' (phosphorothioate, further chemistry not given here) [AS ODN, 18 nt phosphorothioate antisense oligodeoxynucleotide targeted against the translation initiation region of PDE1B1] | induced apoptosis | clearly induced apoptosis | induced apoptosis | 
2 | 5'-TACGTGAGGCACCTACGC-3' (phosphorothioate, further chemistry not given here) [NS ODN, control phosphorothioate nonsense ODN, same base composition as the AS ODN in random, scrambled order] |  | did not |  | no effect
